Like-named read-outs stand apart in the source and are kept apart here.
How the values were obtained:
[1] = tested on: camptothecin-resistant CPT-K5 cells; assay: MTT-microtiter plate tetrazolinium cytotoxicity assay (MTA), CPT-K5; assay type: cell-based, human
Protocol: (§1) The IC50 of the drugs tested were determined by the MTT-microtiter plate tetrazolinium cytotoxicity assay (MTA) (Mosmann, T., J. Immunol. Methods 65:55-63 (1983); Denizot et al., J. Immunol. Methods 89:271-277 (1986)). Human lymphoblast RPMI 8402 cells and their camptothecin-resistant CPT-K5 cells (Andoh et al., Proc. Natl. Acad. Sci., USA 84:5565-5569 (1987)) were kindly provided by Dr. Toshiwo Andoh (Aichi Cancer Center Research Institute, Nagoya, Japan). The cell lines A2780 and its camptothecin-resistant derivative CPT-2000 were a generous gift of Dr. Jaulang Hwang (Institute of Molecular Biology, Academia sinica, Taiwan). Cells (2000 cells/well, seeded in […] growth medium) were grown in suspension at 37° C. in 5% CO2 and maintained by regular passage in RPMI medium supplemented with 10% heat inactivated fetal bovine serum, L-glutamine (2 mM), penicillin (100 U/mi), and streptomycin (0.1 mg/ml). The cells were exposed continuously for 4 days to drug concentrations ranging from 100 ug/ml to 1.0 ng/ml in ten fold dilutions, and assayed at the end of the fourth day. Each concentration and the no drug control were repeated at least twice in 6 replica wells. The results were plotted and the IC50 then measured. The drug sensitive human epidermoid carcinoma KB 3-1 cell line and its vinblastine-selected multidrug-resistant variant KB-V1 cells (Akiyama et al., Genetics 11:117-126 (1985)) were kindly provided by Dr. Michael Gottesmann (National Cancer Institute). They were grown as monolayer cultures at 37° C. in 5% CO2 and maintained by regular passage in Dulbecco's minimal essential medium supplemented with 10% heat inactivated fetal bovine serum. KB-V1 cells were maintained in the presence of […] vinblastine.

[2] = tested on: Human lymphoblast RPMI 8402 cells; assay: MTT-microtiter plate tetrazolinium cytotoxicity assay (MTA), RPMI 8402; assay type: cell-based
Protocol: as §1

[3] = target: T1, human topoisomerase I (Homo sapiens, UniProt P11387); assay: Topo I-mediated DNA cleavage assay; assay type: biochemical
T1 construct: 15 amino acid fusion from pET-11a vector (N); made in house; host or cells: E. coli BL21(DE3)
T1 sequence (P11387 1-765): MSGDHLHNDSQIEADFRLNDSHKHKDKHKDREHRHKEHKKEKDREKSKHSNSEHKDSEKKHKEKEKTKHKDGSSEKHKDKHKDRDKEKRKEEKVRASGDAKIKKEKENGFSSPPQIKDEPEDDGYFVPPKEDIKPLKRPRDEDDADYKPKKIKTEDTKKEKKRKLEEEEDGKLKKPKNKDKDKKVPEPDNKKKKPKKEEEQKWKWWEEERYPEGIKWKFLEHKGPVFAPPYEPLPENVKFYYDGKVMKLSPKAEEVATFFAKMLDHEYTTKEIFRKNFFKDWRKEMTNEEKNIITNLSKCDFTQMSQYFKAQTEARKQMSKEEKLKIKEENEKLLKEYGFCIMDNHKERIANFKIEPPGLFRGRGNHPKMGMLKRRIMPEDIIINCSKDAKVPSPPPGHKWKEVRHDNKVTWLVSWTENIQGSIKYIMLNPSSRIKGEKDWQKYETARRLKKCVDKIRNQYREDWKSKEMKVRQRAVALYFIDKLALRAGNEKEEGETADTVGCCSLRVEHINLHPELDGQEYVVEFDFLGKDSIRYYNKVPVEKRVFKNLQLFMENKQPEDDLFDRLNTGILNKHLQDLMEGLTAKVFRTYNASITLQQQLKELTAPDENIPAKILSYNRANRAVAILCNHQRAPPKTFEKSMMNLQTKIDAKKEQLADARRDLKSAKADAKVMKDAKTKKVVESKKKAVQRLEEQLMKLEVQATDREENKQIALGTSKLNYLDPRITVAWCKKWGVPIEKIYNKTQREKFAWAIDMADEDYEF
Source text: To obtain large quantity of human topoisomerase I, the human topoisomerase I cDNA was cloned into the pET-11a vector, in which transcription of the cDNA is under the control of the inducible T7 promoter (Studier et al., Methods in Enzymol., Vol. 185:60-89, San Diego: Academic Press (1990)). Briefly, a 3.4 kb DNA fragment containing the entire coding sequence of human topoisomerase I and approximately 1 kb of untranslated region downstream of the stop codon was isolated from the plasmid YCpGAL1-hTOP1 (Bjornsti et al., Cancer Res. 49:6318-6323 (1989)) by cutting at the BamHI and EcoRI sites. The vector pET-11a was cut with the same restriction enzymes, dephosphorylated and ligated to the insert in the proper reading frame downstream of the vector cloning site. […] Since the translational start in pET is positioned at an upstream NdeI site, the expressed topoisomerase I has a 15 amino acid fusion at its N-terminus. pET1B was then transformed into E. coli BL21 (DE3), and, upon induction with 0.4 mM IPTG for 1 hour, the bacterial lysate was analyzed by 10% SDS-PAGE. […] Briefly, E. coli cells were lysed by repeated sonic bursts. The sonic extract was made in 1 M NaCl and 6% polyethylene glycol (PEG) to remove nucleic acids. The PEG supernatant was chromatographed directly on a hydroxyapatite column. […] The eluted enzyme was dialyzed against 50% glycerol, 30 mM potassium phosphate (pH 7.0), 1 mM dithiothreitol (DTT) and 0.1 mM EDTA and stored at -20° C.
(§2) Cleavage assays for the recombinant topoisomerases I and calf thymus topoisomerases I and II were done as described (Liu et al., J. Biol. Chem. 258:15365-15370 (1983)). The plasmid YEpG DNA used for the cleavage assays was prepared and labeled at its 3'-end using the published procedures.

[4] = target: T2, calf thymus topoisomerase II (Bos taurus, UniProt F1MDU7); assay: Topo II-mediated DNA cleavage assay; assay type: biochemical; conditions: concentration relative to VM26 (= 1) producing the same cleavage on plasmid DNA in the presence of calf thymus topoisomerase II
T2 construct: from tissue; host or cells: calf thymus glands
Source text: The plasmid pET11a and the E. coli strain BL21(DE3) used for enzyme expression were purchased from Novagen. IPTG was purchased from Sigma. The ECL system used for the Western blotting analysis of bacterial lysates was from Amersham (UK). All the restriction enzymes and Vent polymerase were from New England Biolabs. Mammalian topoisomerase II was isolated from calf thymus glands according to the published procedure (Halligan et al., J. Biol. Chem. 260:2475-2482 (1985)). The single copy yeast plasmids YCpGAL1 expressing various topoisomerase I genes in JN2-134 yeast strain were a kind gift of Dr. M-A. Bjornsti (Thomas Jefferson University, Philadelphia, Pa.). All bacterial and yeast media were from Difco (Detroit, Mich.), while cell culture media were purchased from Gibco-BRL (Gaithersburg, Md.).
as §2

[5] = Homo sapiens, CPT-K5, 96 h, read-out: Cytotoxicity IC50, CPT-K5
[6] = Homo sapiens, RPMI 8402, 96 h, read-out: Cytotoxicity IC50, RPMI
[7] = concentration relative to camptothecin (CPT = 1) producing the same cleavage on plasmid DNA in the presence of human topoisomerase I

T2 sequence (F1MDU7 1-1532): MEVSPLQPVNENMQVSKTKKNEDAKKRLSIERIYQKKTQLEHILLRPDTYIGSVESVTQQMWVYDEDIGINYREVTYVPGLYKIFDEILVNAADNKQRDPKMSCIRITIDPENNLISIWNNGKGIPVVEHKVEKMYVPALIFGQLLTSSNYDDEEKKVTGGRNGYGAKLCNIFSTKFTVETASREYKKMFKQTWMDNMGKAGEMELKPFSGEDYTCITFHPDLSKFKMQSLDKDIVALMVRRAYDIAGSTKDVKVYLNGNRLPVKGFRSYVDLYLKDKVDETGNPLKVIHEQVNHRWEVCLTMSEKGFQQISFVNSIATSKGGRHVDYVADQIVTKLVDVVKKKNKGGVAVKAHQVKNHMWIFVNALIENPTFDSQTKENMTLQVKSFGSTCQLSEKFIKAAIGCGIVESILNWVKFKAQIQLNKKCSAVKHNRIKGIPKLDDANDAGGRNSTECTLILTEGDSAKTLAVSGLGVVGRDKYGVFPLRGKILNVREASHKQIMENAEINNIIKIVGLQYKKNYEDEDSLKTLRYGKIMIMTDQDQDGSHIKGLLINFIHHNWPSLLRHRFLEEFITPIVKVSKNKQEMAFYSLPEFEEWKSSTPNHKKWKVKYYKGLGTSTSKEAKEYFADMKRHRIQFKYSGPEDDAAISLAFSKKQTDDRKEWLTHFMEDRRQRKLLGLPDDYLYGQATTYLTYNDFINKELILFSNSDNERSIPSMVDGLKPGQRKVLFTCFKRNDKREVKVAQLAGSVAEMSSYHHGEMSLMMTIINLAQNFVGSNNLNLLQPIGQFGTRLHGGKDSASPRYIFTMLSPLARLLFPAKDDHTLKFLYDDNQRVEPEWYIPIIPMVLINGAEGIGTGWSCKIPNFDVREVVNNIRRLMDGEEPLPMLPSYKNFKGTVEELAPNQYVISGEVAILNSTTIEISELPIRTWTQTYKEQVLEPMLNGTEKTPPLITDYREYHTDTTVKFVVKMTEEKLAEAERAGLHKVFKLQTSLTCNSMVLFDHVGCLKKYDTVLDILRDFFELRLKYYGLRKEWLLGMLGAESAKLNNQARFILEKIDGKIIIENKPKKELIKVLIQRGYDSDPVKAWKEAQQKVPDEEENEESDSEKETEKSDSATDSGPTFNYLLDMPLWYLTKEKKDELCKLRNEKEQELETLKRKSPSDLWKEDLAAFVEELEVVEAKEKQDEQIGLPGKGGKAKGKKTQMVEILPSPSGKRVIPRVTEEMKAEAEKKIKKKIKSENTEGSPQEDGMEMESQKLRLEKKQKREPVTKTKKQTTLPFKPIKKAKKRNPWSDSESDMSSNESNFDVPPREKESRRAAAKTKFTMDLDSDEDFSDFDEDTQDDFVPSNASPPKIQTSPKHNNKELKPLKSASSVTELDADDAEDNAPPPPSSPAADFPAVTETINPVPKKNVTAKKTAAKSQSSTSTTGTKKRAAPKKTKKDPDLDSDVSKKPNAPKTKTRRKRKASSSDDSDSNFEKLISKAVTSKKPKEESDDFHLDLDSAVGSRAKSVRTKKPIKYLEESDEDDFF

Molecule	Topo I-mediated DNA cleavage (REC, Relative Effective Concentration) [3, 7]	Topo II-mediated DNA cleavage (REC, Relative Effective Concentration) [4]	IC50 [1, 5] [µM]	IC50 [2, 6] [µM]	topoisomerase I poisoning (in words) ([3]; summary statement)	Topo I-mediated DNA cleavage (REC, Relative Effective Concentration) [3]	IC50 ([1]; cpt-k5 cells, 96 h) [µM]	IC50 ([2]; rpmi 8402 cells, 96 h) [µM]
CC[C@@]1(O)C(=O)OCc2c1cc1n(c2=O)Cc2cc3ccccc3nc2-1 [CPT, Camptothecin, reference compound]	1	> 1000	> 10	0.004				
COc1cc2c(cc1OC)-c1nc3cc(OC)c(OC)cc3c(C)c1CC2 [Compound 6, 2,3,9,10-Tetramethoxy-7-methyl-5,6-dihydrobenz[c]acridine]	> 1000	> 1000	> 137	> 137				
COc1cc2ccc3c(C)c4cc(OC)c(OC)cc4nc3c2cc1OC [Compound 7, 2,3,9,10-Tetramethoxy-7-methylbenz[c]acridine]	> 1000	> 1000	5.5	7				
COc1cc2c(cc1OC)-c1c(c(C)c3cc(OC)c(OC)cc3[n+]1C)CC2 [Compound 8, 2,3,9,10-Tetramethoxy-7,1 2-dimethyl-5,6-dihydrobenz[c]acridinium methosulfate]	> 1000	> 1000	12.2	6.1				
COc1cc2ccc3c(C)c4cc(OC)c(OC)cc4[n+](C)c3c2cc1OC [Compound 9, 2,3,9,10-Tetramethoxy-7,1 2-dimethylbenz [c]acridinium methosulfate]	> 1000	> 1000	1.2	1.2				
COc1cc(C2c3cc4c(cc3C(OC3OC5COC(c6cccs6)OC5C(O)C3O)C3COC(=O)C23)OCO4)cc(OC)c1O (stereo not shown) [VM-26, reference compound]			0.5	0.3		> 1000		
Methylenedioxy-dihydro-demethyl-coralyne [MDD-Coralyne, reference compound]	0.1						27	8.1

Now from value to molecule, other results behind:

Topo I-mediated DNA cleavage (REC, Relative Effective Concentration) [3, 7]	Topo II-mediated DNA cleavage (REC, Relative Effective Concentration) [4]	Molecule	IC50 [1, 5] [µM]	IC50 [2, 6] [µM]	topoisomerase I poisoning (in words) ([3]; summary statement)	Topo I-mediated DNA cleavage (REC, Relative Effective Concentration) [3]	IC50 ([1]; cpt-k5 cells, 96 h) [µM]	IC50 ([2]; rpmi 8402 cells, 96 h) [µM]
100	> 1000	COc1cc2c(cc1OC)-c1cc3cc(OC)c(OC)cc3nc1CC2 [Compound 13a, 2,3,9,10-Tetramethoxy-5,6-dihydrobenz[a]acridine]	7.1	7.1				
100	> 1000	COc1cc2c(cc1OC)-c1cc3cc4c(cc3nc1CC2)OCO4 [Compound 13b, 2,3,-Dimethoxy-9,10-methylenedioxy-5,6-dihydrobenz[a]acridine]	14.9	9				
1000	> 1000	COc1cc2cc3c(nc2cc1OC)CCc1ccccc1-3 [Compound 13c, 9,10-Dimethoxy-5,6-dihydrobenz[a]acridine]	6.9	6.9				
100	> 1000	COc1cc2c(cc1OC)-c1cc3ccccc3nc1CC2 [Compound 13d, 2,3-Dimethoxy-5,6-dihydrobenz[a]acridine]	8.6	1				
1.0	> 1000	COc1cc2cc3c(nc2cc1OC)CCc1c-3ccc2c1OCO2 [Compound 13e, 5,6-Dihydro-9,10-dimethoxy-3,4-methylenedioxybenz[a]acridine]	22.4	3	potent topoisomerase I poisions			
100	> 1000	COc1cc2cc3c(nc2cc1OC)CCc1c-3ccc(OC)c1OC [Compound 13f, 5,6-Dihydro-3,4,9,10-tetramethoxybenz[a]acridine]	14.2	14.2				
1.0	> 1000	Oc1cc2c(cc1O)-c1cc3cc(O)c(O)cc3nc1CC2 [Compound 13g, 2,3,9,10-tetrahydroxy-5,6-dihydrobenz[a]acridine]	13.6	20.3				
10	> 1000	COc1cc2cc3c(nc2cc1OC)CCc1cc(Cl)ccc1-3 [Compound 13j, 3-Chloro-9,10-dimethoxy-5,6-dihydrobenz[a]acridine]	15.4	9.2				
1000	> 1000	COc1cc2cc3c(ccc4cc(OC)c(OC)cc43)nc2cc1OC [Compound 14a, 2,3,9,10-Tetramethoxybenz[a]acridine]	2.9	2.9				
1000	> 1000	COc1cc2ccc3nc4cc5c(cc4cc3c2cc1OC)OCO5 [Compound 14b, 2,3,-Dimethoxy-9,10-methylenedioxybenz[a]acridine]	7.5	4.5				

— patent US5981541A, “Substituted heterocycles as anti-tumor agents” (Rutgers, The State University of New Jersey, priority 1997, dated 1999)
